Tests used:
[1] = test system: hepatitis B virus (HBV); test: Progeny HBV in medium of infected HepG2 cells (immunoprecipitation, PCR, densitometry); format: cell-based, HBV in human hepatoma HepG2 cells; conditions: NBDNJ 700 μg/ml (3.2 mM), HepG2 cells infected with protease processed HBV, five days after infection
Excerpt: FIG. 3A and FIG. 3C: DNA from virions, immunoprecipitated with monoclonal antibody to MHBs, was amplified by polymerase chain reaction (PCR) and resolved by agarose gel electrophoresis.
These bands were imaged by densitometry and the areas under the peaks are shown in FIG. 3C in which the average of the two samples of each NBDNJ concentration was plotted.
Infection of HepG2 cells:
HBV was purified from human serum or from the medium of cultured cells by sedimentation to between 40 and 46% sucrose (w/w) following ultracentrifugation, [Seifer et al., Virol. 179, 300-311 (1990)]. Virions were dialyzed in 0.02 M Potassium Phosphate Buffer, pH 7.4, concentrated, treated with V8 protease (from Staphylococcus aureus, Sigma Chemical Co.) overnight at 37° C. centrifuged for 8 hours through a 20% sucrose/0.01M Tris, pH 7.4, 0.14 M NaCl, 0.005 M EDTA (TNE) cushion. The pellets were re-suspended in growth medium and then used to inoculate HepG2 cells.
Progeny virus in the medium of HepG2 cells infected with serum derived HBV was detected by precipitating medium with monoclonal antibody to the PreS2 epitopes. DNA from immunoprecipated virions was amplified by a polymerase chain reaction (PCR) using primers from nucleotides 2815 and 190 with respect to the viral genome (using the EcoRI site as nucleotide 1). […]

[2] = test system: MHBs (PreS2); test: Western blot of MHBs in sucrose gradient fractions; format: cell-based, HBV
Protocol: Polyethylene glycol (PEG) precipitates of culture medium (FIG. 5A) or partly purified virions, HBs filaments and spheres from untreated (FIG. 5B) and NBDNJ treated (FIG. 5C) cultures were resolved by SDS-PAGE (13.5% acrylamide), transferred to immobilin paper and incubated with PreS1 and PreS2 specific monoclonal antibody.
Samples were dissolved in loading buffer, resolved by electrophoresis through 13.5% SDS polyacrylamide gels (SDS-PAGE) and transferred to PVDF (Millipore) membranes and blocked with 5% powdered milk, as in Gultekin and Heerman, Analytical Biochem. 172, 320-329 (1989). After incubation with primary antibody overnight at room temperature in 1% bovine serum albumin (BSA) in TNE and second antibody (peroxidase conjugated goat anti-mouse IgG serum) for 1 hour in TNE at room temperature, membranes were developed in peroxide-diaminobenzidine (Sigma) PBS, as described in the manufacturer's instructions.
The ELISA results were confirmed by Western blot analysis of fractions from the sucrose gradient containing either intact virus, filaments or spheres (FIGS. 5B, from untreated cultures, and 5C, from NBDNJ treated cultures). […]
Fractions distal to the virion containing fractions (near the bottom of the gradient) were resolved in lane 1 to show specificity of the antibody. […] The images shown in FIGS. 5B and 5C) were quantified by densitometry.

[3] = test system: α-glucosidase I; conditions: N-linked oligosaccharide processing enzyme; cited from earlier work

CCCCN1C[C@H](O)[C@@H](O)[C@H](O)[C@H]1CO [NBDNJ, N-butyl-1,5-dideoxy-1,5-imino-D-glucitol]
viral DNA in medium of infected cells vs untreated [1]: an order of magnitude less viral DNA | decrease of MHBs in virion samples compared to untreated ([2]; Western blot densitometry, FIG. 5C lane 2 vs FIG. 5B lane 2): 12 fold | decrease in MHBs (PreS2 epitope) (in words) ([2]; medium of NBDNJ treated cultures, FIGS. 5B and 5C): particularly severe | inhibition of α-glucosidase I (in words) [3]: potent inhibitor

Source: patent publication US6037351A, “Method of inhibiting hepatitis B virus” (priority 1996, dated 2000)
